Legend:
[1] = Phase 1 multidose pharmacokinetic study: safety and tolerability; type: in vivo, human; settings: all groups
Text: The safety population was defined as all randomized subjects who received at least one dose of study drug. The per-protocol population was defined as all safety population subjects who completed the 28-day treatment period without any major protocol deviations, and who provided blood samples for EPA analyses.
Safety assessments consisted of adverse event (AE) monitoring, clinical laboratory measurements (chemistry, hematology, and urinalysis) 12-lead electrocardiographic measurements, vital signs (systolic and diastolic blood pressure, heart rate, respiratory rate, and oral body temperature) and physical examination findings.

[2] = ANCHOR: RBC fatty acid concentrations, ratios and class proportions (GC/FID); type: in vivo, human; parameters: DHA RBC End-of-treatment / DHA RBC Change from baseline / DPAn-3 RBC End-of-treatment / DPAn-3 RBC Change from baseline / AA RBC End-of-treatment / AA RBC Change from baseline / Stearic RBC End-of-treatment / Stearic RBC Change from baseline / Oleic RBC End-of-treatment / Oleic RBC Change from baseline / Linoleic RBC End-of-treatment / Linoleic RBC Change from baseline: unit not given here; settings: for AA RBC Placebo-adjusted percent change from baseline / DHA RBC Placebo-adjusted percent change from baseline / DPAn-3 RBC Placebo-adjusted percent change from baseline / Linoleic RBC Placebo-adjusted percent change from baseline / Oleic RBC Placebo-adjusted percent change from baseline / Palmitic RBC Placebo-adjusted percent change from baseline / Ratio of AA/EPA RBC Placebo-adjusted percent change from baseline / Ratio of total ω-3/total ω-6 RBC Placebo-adjusted percent change from baseline / Stearic RBC Placebo-adjusted percent change from baseline: week 12, LS mean; for Monounsaturated, proportion of total fatty acids, RBCs, Change from baseline / Saturated, proportion of total fatty acids, RBCs, Change from baseline / Total ω-3, proportion of total fatty acids, RBCs, Change from baseline / Total ω-6, proportion of total fatty acids, RBCs, Change from baseline: LS mean (SE); for AA RBC End-of-treatment / DHA RBC End-of-treatment / DPAn-3 RBC End-of-treatment / Linoleic RBC End-of-treatment / Oleic RBC End-of-treatment / Palmitic RBC End-of-treatment / Ratio of AA/EPA RBC End-of-treatment / Ratio of total ω-3/total ω-6 RBC End-of-treatment / Stearic RBC End-of-treatment: week 12, mean; for Monounsaturated, proportion of total fatty acids, RBCs, End-of-treatment / Saturated, proportion of total fatty acids, RBCs, End-of-treatment / Total ω-3, proportion of total fatty acids, RBCs, End-of-treatment / Total ω-6, proportion of total fatty acids, RBCs, End-of-treatment: week 12, mean (SD)
Experimental: A multi-center, placebo-controlled, randomized, double-blind, 12-week study was performed to evaluate the efficacy and safety of >96% E-EPA in patients with fasting triglyceride levels≥200 mg/dl and <500 mg/dl despite statin therapy (the mean of two qualifying entry values needed to be ≥185 mg/dl and at least one of the values needed to be ≥200 mg/dl). The primary objective of the study was to determine the efficacy of >96% E-EPA 2 g daily and 4 g daily, compared to placebo, in lowering fasting TG levels in patients with high risk for cardiovascular disease and with fasting TG levels≥200 mg/dL and <500 mg/dL, despite treatment to LDL-C goal on statin therapy.
During the double-blind treatment period, patients were to take 2 capsules (>96% E-EPA or matching placebo) in the morning and 2 capsules in the evening for a total of 4 capsules per day. • Patients in the >96% E-EPA 2 g/day treatment group received 1>96% E-EPA 1 g capsule and 1 matching placebo capsule in the morning and in the evening. • Patients in the >96% E-EPA 4 g/day treatment group received 2>96% E-EPA 1 g capsules in the morning and evening. • Patients in the placebo group received 2 matching placebo capsules in the morning and evening.
Lipids were extracted from plasma and red blood cell (“RBC”) suspensions and converted into fatty acid methyl esters for analysis using a standard validated gas chromatography/flame ionization detection method. Fatty acid parameters were compared between EPA treatment groups and placebo using an ANCOVA model with treatment, gender, type of statin therapy, and presence of diabetes as factors, and the baseline parameter value as a covariate. LSMs, SEs, and 2-tailed 95% confidence intervals for each treatment group and for each comparison were determined.
The monounsaturated fatty acid group included myristoleic, palmitoleic, cis-vaccenic, oleic, gondoic/gadoleic, erucic and nervonic acids. The saturated fatty acid group included myristic, palmitic, stearic, arachidic, behenic and lignoceric acids. The “total ω-3” group included α-linolenic, stearidonic, eicosatrienoic, ω-3 arachidonic, eicosapentaenoic, ω-3 docosapentaenoic and docosahecaenoic acids. The “total ω-6” group included linoleic, γ-linolenic, eicosadienoic, dihomo-γ-linolenic, ω-6 arachidonic, adrenic, and ω-6 docosapentaenoic acids. The “total fatty acid” group represented the sum of the monounsaturated, saturated, total ω-3 and total ω-6 groups.

[3] = 2 g/day, baseline to week 12, LS mean (SE)
[4] = 4 g/day, baseline to week 12, LS mean

Compound: CC/C=C\C/C=C\C/C=C\C/C=C\C/C=C\CCCC(=O)OCC [IPE, all-cis eicosa-5,8,11,14,17-pentaenoic acid ethyl ester]
- changes in laboratory, electrocardiographic, or physical examination findings [1]: no clinically meaningful changes
- intensity of adverse events [1]: mild or moderate in intensity
- Monounsaturated, proportion of total fatty acids, RBCs, Placebo-adjusted percent change from baseline ([2]; 2 g/day vs placebo): −0.7%
- Saturated, proportion of total fatty acids, RBCs, Placebo-adjusted percent change from baseline ([2]; 2 g/day vs placebo): 1.3%
- Total ω-3, proportion of total fatty acids, RBCs, Placebo-adjusted percent change from baseline ([2]; 2 g/day vs placebo): 50.0%
- Total ω-6, proportion of total fatty acids, RBCs, Placebo-adjusted percent change from baseline ([2]; 2 g/day vs placebo): −11.3%
- AA RBC Placebo-adjusted percent change from baseline ([2]; 2 g/day vs placebo): −11.6%
- DHA RBC Placebo-adjusted percent change from baseline ([2]; 2 g/day vs placebo): −5.4%
- DPAn-3 RBC Placebo-adjusted percent change from baseline ([2]; 2 g/day vs placebo): 74.9%
- Linoleic RBC Placebo-adjusted percent change from baseline ([2]; 2 g/day vs placebo): −2.1%
- Oleic RBC Placebo-adjusted percent change from baseline ([2]; 2 g/day vs placebo): 1.6%
- Palmitic RBC Placebo-adjusted percent change from baseline ([2]; 2 g/day vs placebo): 0.5%
- Ratio of AA/EPA RBC Placebo-adjusted percent change from baseline ([2]; 2 g/day vs placebo): −87.1%
- Ratio of total ω-3/total ω-6 RBC Placebo-adjusted percent change from baseline ([2]; 2 g/day vs placebo): 60.4%
- Stearic RBC Placebo-adjusted percent change from baseline ([2]; 2 g/day vs placebo): 1.6%
- Monounsaturated, proportion of total fatty acids, RBCs, Change from baseline ([2]; 2 g/day): −0.1 (0.2) mol %
- Saturated, proportion of total fatty acids, RBCs, Change from baseline ([2]; 2 g/day): −0.3 (0.3) mol %
- Total ω-3, proportion of total fatty acids, RBCs, Change from baseline ([2]; 2 g/day): 2.6 (0.2) mol %
- Total ω-6, proportion of total fatty acids, RBCs, Change from baseline ([2]; 2 g/day): −2.4 (0.4) mol %
- AA RBC Change from baseline [2, 3]: −20.0 (3.3)
- DHA RBC Change from baseline [2, 3]: −5.5 (0.9)
- DPAn-3 RBC Change from baseline [2, 3]: 21.2 (1.3)
- Linoleic RBC Change from baseline [2, 3]: −1.3 (3.5)
- Oleic RBC Change from baseline [2, 3]: 3.1 (2.8)
- Palmitic RBC Change from baseline [2, 3]: 4.9 (4.1)
- Ratio of AA/EPA RBC Change from baseline [2, 3]: −21.9 (0.8)
- Ratio of total ω-3/total ω-6 RBC Change from baseline [2, 3]: 0.1 (0.01)
- Stearic RBC Change from baseline [2, 3]: 3.9 (2.3)
- AA RBC End-of-treatment ([2]; 2 g/day): 173.0
- DHA RBC End-of-treatment ([2]; 2 g/day): 44.7
- DPAn-3 RBC End-of-treatment ([2]; 2 g/day): 52.2
- Linoleic RBC End-of-treatment ([2]; 2 g/day): 153.1
- Oleic RBC End-of-treatment ([2]; 2 g/day): 204.7
- Palmitic RBC End-of-treatment ([2]; 2 g/day): 321.1
- Ratio of AA/EPA RBC End-of-treatment ([2]; 2 g/day): 6.4
- Ratio of total ω-3/total ω-6 RBC End-of-treatment ([2]; 2 g/day): 0.3
- Stearic RBC End-of-treatment ([2]; 2 g/day): 178.7
- Monounsaturated, proportion of total fatty acids, RBCs, End-of-treatment ([2]; 2 g/day): 19.9 (1.1) mol %
- Saturated, proportion of total fatty acids, RBCs, End-of-treatment ([2]; 2 g/day): 43.5 (2.1) mol %
- Total ω-3, proportion of total fatty acids, RBCs, End-of-treatment ([2]; 2 g/day): 8.5 (1.5) mol %
- Total ω-6, proportion of total fatty acids, RBCs, End-of-treatment ([2]; 2 g/day): 28.1 (2.1) mol %
- Monounsaturated, proportion of total fatty acids, RBCs, Placebo-adjusted percent change from baseline ([2]; 4 g/day vs placebo): −2.7%
- Saturated, proportion of total fatty acids, RBCs, Placebo-adjusted percent change from baseline ([2]; 4 g/day vs placebo): 3.2%
- Total ω-3, proportion of total fatty acids, RBCs, Placebo-adjusted percent change from baseline ([2]; 4 g/day vs placebo): 89.1%
- Total ω-6, proportion of total fatty acids, RBCs, Placebo-adjusted percent change from baseline ([2]; 4 g/day vs placebo): −19.7%
- AA RBC Placebo-adjusted percent change from baseline ([2]; 4 g/day vs placebo): −20.3%
- DHA RBC Placebo-adjusted percent change from baseline ([2]; 4 g/day vs placebo): −6.6%
- DPAn-3 RBC Placebo-adjusted percent change from baseline ([2]; 4 g/day vs placebo): 122.4%
- Linoleic RBC Placebo-adjusted percent change from baseline ([2]; 4 g/day vs placebo): −11.1%
- Oleic RBC Placebo-adjusted percent change from baseline ([2]; 4 g/day vs placebo): −3.7%
- Palmitic RBC Placebo-adjusted percent change from baseline ([2]; 4 g/day vs placebo): −2.7%
- Ratio of AA/EPA RBC Placebo-adjusted percent change from baseline ([2]; 4 g/day vs placebo): −98.5%
- Ratio of total ω-3/total ω-6 RBC Placebo-adjusted percent change from baseline ([2]; 4 g/day vs placebo): 123.0%
- Stearic RBC Placebo-adjusted percent change from baseline ([2]; 4 g/day vs placebo): −1.3%
- Monounsaturated, proportion of total fatty acids, RBCs, Change from baseline ([2]; 4 g/day): −0.5 (0.2) mol %
- Saturated, proportion of total fatty acids, RBCs, Change from baseline ([2]; 4 g/day): 0.5 (0.3) mol %
- Total ω-3, proportion of total fatty acids, RBCs, Change from baseline ([2]; 4 g/day): 4.9 (0.2) mol %
- Total ω-6, proportion of total fatty acids, RBCs, Change from baseline ([2]; 4 g/day): −4.9 (0.4) mol %
- AA RBC Change from baseline [2, 4]: −37.5
- DHA RBC Change from baseline [2, 4]: −6.4
- DPAn-3 RBC Change from baseline [2, 4]: 33.6
- Linoleic RBC Change from baseline [2, 4]: −16.1
- Oleic RBC Change from baseline [2, 4]: −8.0
- Palmitic RBC Change from baseline [2, 4]: −6.3
- Ratio of total ω-3/total ω-6 RBC Change from baseline [2, 4]: 0.2
- Stearic RBC Change from baseline [2, 4]: −1.4
- AA RBC End-of-treatment ([2]; 4 g/day): 153.1
- DHA RBC End-of-treatment ([2]; 4 g/day): 39.0
- DPAn-3 RBC End-of-treatment ([2]; 4 g/day): 61.9
- Linoleic RBC End-of-treatment ([2]; 4 g/day): 132.7
- Oleic RBC End-of-treatment ([2]; 4 g/day): 188.8
- Palmitic RBC End-of-treatment ([2]; 4 g/day): 301.2
- Ratio of AA/EPA RBC End-of-treatment ([2]; 4 g/day): 3.6
- Ratio of total ω-3/total ω-6 RBC End-of-treatment ([2]; 4 g/day): 0.4
- Stearic RBC End-of-treatment ([2]; 4 g/day): 170.5
- Monounsaturated, proportion of total fatty acids, RBCs, End-of-treatment ([2]; 4 g/day): 19.8 (1.7) mol %
- Saturated, proportion of total fatty acids, RBCs, End-of-treatment ([2]; 4 g/day): 44.2 (3.0) mol %
- Total ω-3, proportion of total fatty acids, RBCs, End-of-treatment ([2]; 4 g/day): 10.2 (2.5) mol %
- Total ω-6, proportion of total fatty acids, RBCs, End-of-treatment ([2]; 4 g/day): 25.8 (3.2) mol %

Reference: patent US11229618B2 (Amarin Pharmaceuticals Ireland Limited, priority 2012, dated 2022)
